Read-outs that look alike come from different tables or passages of the source. Numbered stars: 1 amine (or outer) side, 2 acyl side, 3 side chain; on linkers, the order of the positions; unused ones are H or OH. Bridge positions count the residues as written; N and C are the ends. Square brackets hold non-standard residues; d marks the D form. Peptide text beside a SMILES is read from it. Phe(4-guanidino) = N=C(N)Nc1ccc(C[C@H](N)C(=O)O)cc1; TBMB = c1c(C[*:1])cc(C[*:3])cc1C[*:2]; NMeR = CN[C@@H](CCCNC(=N)N)C(=O)O; hArg = N=C(N)NCCCC[C@H](N)C(=O)O; Chg = N[C@H](C(=O)O)C1CCCCC1; Phg = N[C@H](C(=O)O)c1ccccc1; Tle = CC(C)(C)[C@H](N)C(=O)O; Aze = O=C(O)[C@@H]1CCN1
Tests used:
[1] = target: T1, rat plasma Kallikrein (Rattus norvegicus, UniProt P14272); experiment: Functional enzyme inhibition assay with fluorogenic substrate Z-PheArg-AMC, rat plasma Kallikrein; assay type: biochemical
T1 construct: polyhistidine tag (N, cleaved yes); proTEV cleavage site (pro-peptide linker) (N, cleaved yes); made in house; host or cells: HEK-293 (suspension-adapted)
T1 sequence (P14272 391-638 limits assumed): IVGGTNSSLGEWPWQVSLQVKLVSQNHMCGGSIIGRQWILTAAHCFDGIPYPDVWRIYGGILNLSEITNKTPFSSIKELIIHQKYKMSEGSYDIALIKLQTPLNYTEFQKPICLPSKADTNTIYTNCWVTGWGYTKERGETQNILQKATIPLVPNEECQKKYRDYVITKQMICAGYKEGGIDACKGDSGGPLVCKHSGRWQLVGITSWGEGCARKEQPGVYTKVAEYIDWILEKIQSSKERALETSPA
Experimental: Functional enzyme assays were conducted in 10 mM Tris HCl, 150 mM NaCl, 10 mM MgCl2, 1 mM CaCl2) and 1 mg/mL BSA (all Sigma UK) pH7.4 at 25° C. in solid black 96 well plates. Briefly 26.5 pM human plasma Kallikrein (purchased from Stratech, UK) or 500 pM rat plasma Kallikrein (expressed and purified in house) were incubated in the absence or presence of increasing concentrations of test peptide for 15 minutes before addition of the fluorogenic substrate Z-PheArg-AMC (Enzo Lifesciences UK) to a final assay concentration of 100 μM in 4% DMSO. Release of AMC was measured using a Pherastar FS (BMG Labtech), excitation 360 nm, emission 460 nm. The rate of the linear phase of the reaction, typically 5 to 45 minutes, was calculated in MARS data analysis software (BMG labtech). The rate was then used to calculate the IC50 and Ki in Prism (GraphPad). A four parameter inhibition non-linear regression equation was used to calculate the IC50.
Peptides were dissolved as the TFA-salts in their powder form, and stock solutions were usually prepared in water. All solutions were centrifuged and filtered ([…] syringe filters) prior absorption measurement at 280 nm. Extinction coefficients were calculated based on the Trp/Tyr content of the peptide, and that of TMB (the TMB core, when contained in a peptide, has an ε of ˜300 M^−1cm^−1). For peptides containing non-natural amino acids with suspected chromophoric properties (i.e. NorHar, 4PhenylPro, 3Pal, 4Pal, Tic, 4GuanPhe, 4,4-BPAI, 3,3-DPA, 1NAI, 2NAI, 4BenzylPro, Ind) concentrations were determined by weighing the powder and dissolving the peptide in a defined quantity of water.

[2] = target: T2, human plasma Kallikrein (Homo sapiens, UniProt P03952); experiment: Functional enzyme inhibition assay with fluorogenic substrate Z-PheArg-AMC, human plasma Kallikrein; assay type: biochemical
T2 construct: purchased Stratech, UK
T2 sequence (P03952 20-638): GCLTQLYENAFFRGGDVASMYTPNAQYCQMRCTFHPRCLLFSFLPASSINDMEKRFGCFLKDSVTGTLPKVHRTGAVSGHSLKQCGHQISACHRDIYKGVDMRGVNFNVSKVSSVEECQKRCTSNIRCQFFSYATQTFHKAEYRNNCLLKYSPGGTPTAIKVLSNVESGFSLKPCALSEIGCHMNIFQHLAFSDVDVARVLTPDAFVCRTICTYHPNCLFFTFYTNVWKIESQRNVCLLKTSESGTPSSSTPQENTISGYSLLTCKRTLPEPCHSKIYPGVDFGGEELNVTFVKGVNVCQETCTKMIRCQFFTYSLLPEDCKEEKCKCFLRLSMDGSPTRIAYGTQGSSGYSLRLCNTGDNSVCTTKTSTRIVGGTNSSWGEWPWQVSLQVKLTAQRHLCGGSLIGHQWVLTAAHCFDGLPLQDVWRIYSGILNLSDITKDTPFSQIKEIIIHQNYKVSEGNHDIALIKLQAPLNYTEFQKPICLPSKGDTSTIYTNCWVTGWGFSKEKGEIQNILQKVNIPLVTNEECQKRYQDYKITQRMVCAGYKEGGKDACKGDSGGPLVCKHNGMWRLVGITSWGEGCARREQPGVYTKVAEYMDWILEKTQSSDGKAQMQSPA
In short: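 Human plasma kallikrein at 26.5 pM was preincubated 15 minutes with test peptide in Tris/NaCl/MgCl2/CaCl2/BSA buffer pH7.4 at 25° C, then Z-PheArg-AMC added to 100 μM final in 4% DMSO.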

[3] = target: T1, rat plasma Kallikrein; settings: Table 1; read-out: Ki (nM) (rat kallikrein); cited from earlier work
[4] = Plasma stability / fragment profiling Method #2 (MALDI-TOF, 95% plasma), human plasma; assay type: in vitro ADME
Experimental: To obtain stability data more rapidly, peptides were also assessed in 95% plasma. Here, PBS was omitted, and a 1 mM peptide stock (in DMSO) was directly diluted into plasma (i.e. 2.5 uL stock into 47.5 uL plasma), giving a final concentration of 50 uM. 5 uL samples were taken at appropriate time points and frozen at −80 deg C. For analysis, the samples were defrosted, mixed with 15 uL of 1:1 acetonitrile:methanol, and centrifuged at 13 k for 5 min. 5 uL of the peptide-containing supernatant was aspirated and mixed with 30 mM ammonium bicarbonate in a 1:1 mixture of acetonitrile:H2O. 1 uL of this was then spotted on the MALDI plate and analysed as described above. As above, it should be noted that this is a qualitative assay serves to detect relative changes in plasma stability.
Ac-06-34-18(TMB)-NH2 Phe2 Tyr4 (referred to as wild type peptide) was subsequently subjected to human plasma, and analysed for fragments to appear over time. This was compared to the degradation profile observed in human plasma using the NMe-Arg5 derivative of 06-34-18 (FIGS. 18a and 18b). Fragmentation was determined according to Method #2.

[5] = Table 26b, loop 1 and loop 2 modified derivatives
[6] = Table 26b, loop 1 and loop 2 modified derivatives, read-out: Ki (nM) (human kallikrein)
[7] = Table 26a, loop2 stability enhanced candidates
[8] = Table 24a, residue 6 modification in the context of Ac-(06-34-18) Phe2 Tyr4, read-out: Ki (nM) Ac-(06-34-18) Phe2 Tyr4

Compound	Ki [1, 5] [nM]	Ki [2, 6] [nM]	Ki [1, 7] [nM]	further results
CC(=O)N[C@H]1CSCc2cc3cc(c2)CSC[C@H](NC(=O)[C@H](CCCCNC(=N)N)NC(=O)[C@H](Cc2ccc(O)cc2)NC(=O)[C@@H]2CCN2C(=O)[C@H](Cc2ccccc2)NC(=O)[C@H](CO)NC1=O)C(=O)N[C@@H](C)CN[C@@H](Cc1c[nH]cn1)C(=O)N[C@@H](CCC(N)=O)C(=O)N[C@@H](CC(=O)O)C(=O)N[C@@H](CC(C)C)C(=O)N[C@H](C(N)=O)CSC3	41	0.44	–	–
CC(=O)N[C@H]1CSCc2cc3cc(c2)CSC[C@H](NC(=O)[C@H](CCCCNC(=N)N)NC(=O)[C@H](C)NC(=O)[C@@H]2CCN2C(=O)[C@H](Cc2c[nH]c4ccccc24)NC(=O)[C@H](CO)NC1=O)C(=O)N[C@@H](c1ccccc1)C(=O)N[C@@H](Cc1c[nH]cn1)C(=O)N[C@@H](CCC(N)=O)C(=O)N[C@@H](CC(=O)O)C(=O)N[C@@H](CC(C)C)C(=O)N[C@H](C(N)=O)CSC3 [Ac-(06-34-18) Aze3 HArg5 Phg6] (Ac-CSW[Aze]A[hArg]C[Phg]HQDLC-NH2; linker 1-7-13 via TBMB)	57	0.52	–	–
CC(=O)N[C@H]1CSCc2cc3cc(c2)CSC[C@H](NC(=O)[C@H](CCCCNC(=N)N)NC(=O)[C@H](Cc2ccc(O)cc2)NC(=O)[C@@H]2CCN2C(=O)[C@H](Cc2ccccc2)NC(=O)[C@H](CO)NC1=O)C(=O)N[C@@H](CC(C)C)C(=O)N[C@@H](Cc1c[nH]cn1)C(=O)N[C@@H](CCC(=O)O)C(=O)N[C@@H](CC(=O)O)C(=O)N[C@@H](CC(C)C)C(=O)N[C@H](C(N)=O)CSC3 [Ac-(06-34-18) Phe2 Aze3 Tyr4 HArg5 Glu8] (Ac-CSF[Aze]Y[hArg]CLHEDLC-NH2; linker 1-7-13 via TBMB)	23	1.65	–	–
CC(=O)N[C@H]1CSCc2cc3cc(c2)CSC[C@H](NC(=O)[C@H](CCCCNC(=N)N)NC(=O)[C@H](Cc2ccc(O)cc2)NC(=O)[C@@H]2CCN2C(=O)[C@H](Cc2ccccc2)NC(=O)[C@H](CO)NC1=O)C(=O)N[C@@H](c1ccccc1)C(=O)N[C@@H](Cc1c[nH]cn1)C(=O)N[C@@H](CCC(N)=O)C(=O)N[C@@H](CC(=O)O)C(=O)N[C@@H](CC(C)C)C(=O)N[C@H](C(N)=O)CSC3 [Ac-(06-34-18) Phe2 Aze3 Tyr4 HArg5 Phg6] (Ac-CSF[Aze]Y[hArg]C[Phg]HQDLC-NH2; linker 1-7-13 via TBMB)	12	0.32	–	–
CC(=O)N[C@H]1CSCc2cc3cc(c2)CSC[C@H](NC(=O)[C@H](CCCNC(=N)N)NC(=O)[C@H](Cc2ccc(O)cc2)NC(=O)[C@@H]2CCN2C(=O)[C@H](Cc2ccccc2)NC(=O)[C@H](CO)NC1=O)C(=O)N[C@@H](C(C)(C)C)C(=O)N[C@@H](Cc1c[nH]cn1)C(=O)N[C@@H](CCC(N)=O)C(=O)N[C@@H](CC(=O)O)C(=O)N[C@@H](CC(C)C)C(=O)N[C@H](C(N)=O)CSC3 [Ac-(06-34-18) Phe2 Aze3 Tyr4 tBuGly6] (Ac-CSF[Aze]YRC[Tle]HQDLC-NH2; linker 1-7-13 via TBMB)	193	1.91	–	–
CC(=O)N[C@H]1CSCc2cc3cc(c2)CSC[C@H](NC(=O)[C@H](Cc2ccc(NC(=N)N)cc2)NC(=O)[C@H](Cc2ccc(O)cc2)NC(=O)[C@@H]2CCN2C(=O)[C@H](Cc2ccccc2)NC(=O)[C@H](CO)NC1=O)C(=O)N[C@@H](CC(C)C)C(=O)N[C@@H](Cc1c[nH]cn1)C(=O)N[C@@H](CCC(N)=O)C(=O)N[C@@H](CC(=O)O)C(=O)N[C@@H](CC(C)C)C(=O)N[C@H](C(N)=O)CSC3 [Ac-(06-34-18) Phe2 Aze3Tyr4 4GuanPhe5] (Ac-CSF[Aze]Y[Phe(4-guanidino)]CLHQDLC-NH2; linker 1-7-13 via TBMB)	–	–	–	Ki [3]: 1.2 nM
CC(=O)N[C@H]1CSCc2cc3cc(c2)CSC[C@H](NC(=O)[C@H](CCCNC(=N)N)N(C)C(=O)[C@H](Cc2ccc(O)cc2)NC(=O)[C@@H]2CCN2C(=O)[C@H](Cc2ccccc2)NC(=O)[C@H](CO)NC1=O)C(=O)N[C@@H](CC(C)C)C(=O)N[C@@H](Cc1c[nH]cn1)C(=O)N[C@@H](CCC(N)=O)C(=O)N[C@@H](CC(=O)O)C(=O)N[C@@H](CC(C)C)C(=O)N[C@H](C(N)=O)CSC3 [Ac-(06-34-18) Phe2 Aze3Tyr4 NMeArg5] (Ac-CSF[Aze]Y[NMeR]CLHQDLC-NH2; linker 1-7-13 via TBMB)	–	–	–	Ki [3]: 31.4 nM
CC(=O)N[C@H]1CSCc2cc3cc(c2)CSC[C@H](NC(=O)[C@H](CCCNC(=N)N)NC(=O)[C@H](Cc2ccc(O)cc2)NC(=O)[C@@H]2CCCN2C(=O)[C@H](Cc2ccccc2)NC(=O)[C@H](CO)NC1=O)C(=O)N[C@@H](C)CN[C@@H](Cc1c[nH]cn1)C(=O)N[C@@H](CCC(N)=O)C(=O)N[C@@H](CC(=O)O)C(=O)N[C@@H](CC(C)C)C(=O)N[C@H](C(N)=O)CSC3 [Ac-(06-34-18) Phe2 Tyr4 Ala(ψCH2NH)6]	–	–	43.6	degradation / fragments in human plasma (in words) ([4]; running text and figure legends): significantly enhanced stability in loop2; Kd [2]: 1.5 nM; F (Kivar/KiWT) ([2]; Table 25b, fold change of Ki of variant compared to WT): 4; Ki ([2]; Table 25b, peptide backbone modifications in Loop2, human plasma kallikrein, read-out: Ki): 1.47 nM
CC(=O)N[C@H]1CSCc2cc3cc(c2)CSC[C@H](NC(=O)[C@H](CCCNC(=N)N)NC(=O)[C@H](Cc2ccc(O)cc2)NC(=O)[C@@H]2CCCN2C(=O)[C@H](Cc2ccccc2)NC(=O)[C@H](CO)NC1=O)C(=O)N[C@@H](C1CCCCC1)C(=O)N[C@@H](Cc1c[nH]cn1)C(=O)N[C@@H](CCC(N)=O)C(=O)N[C@@H](CC(=O)O)C(=O)N[C@@H](CC(C)C)C(=O)N[C@H](C(N)=O)CSC3 [Ac-(06-34-18) Phe2 Tyr4 Chg6] (Ac-CSFPYRC[Chg]HQDLC-NH2; linker 1-7-13 via TBMB)	–	–	9.09	Ki [2, 8]: 0.5 nM
CC(=O)N[C@H]1CSCc2cc3cc(c2)CSC[C@H](NC(=O)[C@H](CCCNC(=N)N)NC(=O)[C@H](Cc2ccc(O)cc2)NC(=O)[C@@H]2CCCN2C(=O)[C@H](Cc2ccccc2)NC(=O)[C@H](CO)NC1=O)C(=O)N[C@@H](CC(C)C)C(=O)N[C@@H](Cc1c[nH]cn1)C(=O)N[C@@H](CCC(N)=O)C(=O)N[C@H](CC(=O)O)C(=O)N[C@@H](CC(C)C)C(=O)N[C@H](C(N)=O)CSC3 [Ac-(06-34-18) Phe2 Tyr4 D-Asp9] (Ac-CSFPYRCLHQ[dD]LC-NH2; linker 1-7-13 via TBMB)	–	–	32	Fragments (human plasma) ([4]; Table 3b, peptide fragments observed after incubation in human plasma): -R, -FPYR; reduction in potency/affinity compared to wildtype [2]: 9 fold; Ki ([2]; Table 3b, D-amino acid scan in Loop2, read-out: Ki): 3.89 nM; F (Kivar/KiWT) ([2]; Table 3b, ratio of Ki to wild type): 9; Ki ([2]; read-out: Ki / affinity to human Kallikrein): 4 nM
CC(=O)N[C@H]1CSCc2cc3cc(c2)CSC[C@H](NC(=O)[C@H](CCCNC(=N)N)NC(=O)[C@H](Cc2ccc(O)cc2)NC(=O)[C@@H]2CCCN2C(=O)[C@H](Cc2ccccc2)NC(=O)[C@H](CO)NC1=O)C(=O)N[C@@H](c1ccccc1)C(=O)N[C@@H](Cc1c[nH]cn1)C(=O)N[C@@H](CCC(N)=O)C(=O)N[C@@H](CC(=O)O)C(=O)N[C@@H](CC(C)C)C(=O)N[C@H](C(N)=O)CSC3 [Ac-(06-34-18) Phe2 Tyr4 Phg6] (Ac-CSFPYRC[Phg]HQDLC-NH2; linker 1-7-13 via TBMB)	–	–	7.23	Ki [2, 8]: 0.3 nM

From patent publication US10118947B2, “Modulation of structured polypeptide specificity” (BICYCLE THERAPEUTICS LIMITED, priority 2013, dated 2018)
